Data published in patent publication US11441144B2, “Methods of polynucleotide preparation using multivalent cation salt compositions” (Geron Corporation, priority 2015, dated 2022).

Test: Solubility of precipitate in 0.1M NaOH
Assay type: physicochemical
Conditions: salts precipitated in a large excess of salt reagent
Excerpt: The crystallization or precipitation of divalent or trivalent forms of Imetelstat was investigated using a large excess of inorganic salts of interest (900 equivalents, weight base). […] Three types of Imetelstat solution: crude Imetelstat solution (ammonium salt), purified Imetelstat (triethylammonium (TEA) salt form), and Imetelstat sodium (Na salt form), were mixed with each salt solution.
The solubilities of the precipitates isolated under the conditions of large excess of salt regent were initially investigated using the following solvents: water, acetonitrile, MeOH, EtOH, IPA (isopropyl alcohol), 0.1M NaOH, 0.1M HCl, 1M NaCl, and NMP.
(see Table 2). Solubility studies of Imetelstat precipitate obtained from a large excess of magnesium salt reagent were conducted in 1M NaCl solutions at different concentrations (2 mg/mL to 6 mg/mL) and under different pH conditions (pH 8, 9, 10, 11, 12) and analyzed by HPLC (see chromatograms of FIG. 1).

## BaCl2
  Solubility in a 0.1M NaOH and 1M NaCl solution: soluble
